Data taken from patent publication US4070469A, “Compound for the treatment of bovine mastitis” (priority 1975, dated 1978).
Values after ≈ are worked out from the molar mass of the structure shown. Like-named read-outs stand apart in the source and are kept apart here.

Key:
[1] = test system: Strep.uberis; assay: Minimal bactericidal activity (MBC) in milk, field isolates; type: cell-based; details: for MBC: Streptococcus uberis
From the text: (§1) The activity of some of said nitrofuryl quinolines derivatives against Strep.uberis and Stap.Aureus in milk has been compared with the activity of some of the compounds so far utilised in the treatment of bovine mastitis. The results are shown in Table I. (The nitrofuryl quinoline derivatives have general formula [drawing 1] the meaning of R, A, R', B, Y, X and Z being given in the Table. R1 =O whenever indicated then the N-oxide is concerned; NF stands for nitrofuryl)
(§2) Minimal Bactericidal/Activity (MBC) of representative Nitrofuryl
(§3) in mcg/ml in milk at pH 7.2 - 7.4. Versus Standards (Field

[2] = test system: Staph.Aureus; assay: as above; type: cell-based; details: for MBC: Staphylococcus aureus
From the text: as §1, §2, §3

[3] = in milk at pH 7.2 - 7.4, field isolate 60B, read-out: Minimal Bactericidal Activity (MBC), Strep.uberis 60B
[4] = in milk at pH 7.2 - 7.4, field isolate 127A, read-out: Minimal Bactericidal Activity (MBC), Strep.uberis 127A
[5] = in milk at pH 7.2 - 7.4, field isolate 2337, read-out: Minimal Bactericidal Activity (MBC), Staph.Aureus 2337
[6] = in milk at pH 7.2 - 7.4, field isolate 2372, read-out: Minimal Bactericidal Activity (MBC), Staph.Aureus 2372
[7] = read-out: Minimal Bactericidal Activity (MBC), Strep.uberis 60B
[8] = read-out: Minimal Bactericidal Activity (MBC), Strep.uberis 127A
[9] = read-out: Minimal Bactericidal Activity (MBC), Staph.Aureus 2337
[10] = read-out: Minimal Bactericidal Activity (MBC), Staph.Aureus 2372

Row | Molecule | MBC [1, 3] [µg/mL] | MBC [1, 4] [µg/mL] | MBC [2, 5] [µg/mL] | MBC [2, 6] [µg/mL] | further results
1 | CCc1cccc2c(-c3ccc([N+](=O)[O-])o3)cc(C)nc12 [Compound 10] | > 10 | > 10 | > 10 | > 10 | –
2 | COc1cc2nc(C)cc(-c3ccc([N+](=O)[O-])o3)c2cc1N [Compound 34] | 0.25 (≈ 0.835 µM) | 1 (≈ 3.34 µM) | 5 (≈ 16.7 µM) | 5 (≈ 16.7 µM) | –
3 | CCCOc1ccc2c(-c3ccc([N+](=O)[O-])o3)cc(C)[n+]([O-])c2c1 [Compound 42] | 5 (≈ 15.2 µM) | 5 (≈ 15.2 µM) | 10 (≈ 30.5 µM) | 5 (≈ 15.2 µM) | –
4 | O=[N+]([O-])c1ccc(-c2cc(C=NO)nc3ccccc23)o1 [Compound 15] | 1 (≈ 3.53 µM) | 1 (≈ 3.53 µM) | 1 (≈ 3.53 µM) | 1 (≈ 3.53 µM) | –
5 | NC[C@H]1O[C@H](O[C@H]2[C@H](O)[C@@H](O[C@H]3O[C@H](CO)[C@@H](O)[C@H](N)[C@H]3O)[C@H](N)C[C@@H]2N)[C@H](O)[C@@H](O)[C@@H]1O [Kanamycin, reference compound] | – | – | – | – | MBC [1, 7]: 100 µg/mL (≈ 206 µM); MBC [1, 8]: 100 µg/mL (≈ 206 µM); MBC [2, 9]: 12.5 µg/mL (≈ 25.8 µM); MBC [2, 10]: 12.5 µg/mL (≈ 25.8 µM)
6 | CCc1ccc2c(c1)c(-c1ccc([N+](=O)[O-])o1)cc(CC)[n+]2[O-] [Compound 32] | 1 (≈ 3.2 µM) | > 10 | > 10 | > 10 | –
7 | Cc1cc(-c2ccc([N+](=O)[O-])o2)c2ccccc2n1 [Compound 5] | 10 (≈ 39.3 µM) | 10 (≈ 39.3 µM) | > 10 | > 10 | –
8 | COc1cc2c(-c3ccc([N+](=O)[O-])o3)cc(C)[n+]([O-])c2cc1OC [Compound 39] | 0.25 (≈ 0.757 µM) | 1 (≈ 3.03 µM) | 10 (≈ 30.3 µM) | 0.5 (≈ 1.51 µM) | –
9 | COc1ccc2c(-c3ccc([N+](=O)[O-])o3)cc(C(=O)O)[n+]([O-])c2c1 [Compound 25] | 0.25 (≈ 0.757 µM) | 0.5 (≈ 1.51 µM) | 1 (≈ 3.03 µM) | 5 (≈ 15.1 µM) | –
10 | CNN=Cc1cc(-c2ccc([N+](=O)[O-])o2)c2ccccc2n1 [Compound 36] | 5 (≈ 16.9 µM) | 5 (≈ 16.9 µM) | > 10 | 5 (≈ 16.9 µM) | –
11 | COc1ccc2c(-c3ccc([N+](=O)[O-])o3)cc(C)nc2c1 [Compound 9] | 10 (≈ 35.2 µM) | 5 (≈ 17.6 µM) | 5 (≈ 17.6 µM) | 5 (≈ 17.6 µM) | –
12 | Cc1cc(-c2ccc([N+](=O)[O-])o2)[n+]([O-])c2ccccc12 [Compound 4] | > 10 | > 10 | 10 (≈ 37 µM) | > 10 | –
13 | Spiramycin [reference compound] | – | – | – | – | Minimal Bactericidal Activity (MBC), Strep.uberis 60B ([1]; in milk at pH 7.2 - 7.4, field isolate 60B): 1.56 µg/mL; Minimal Bactericidal Activity (MBC), Strep.uberis 127A ([1]; in milk at pH 7.2 - 7.4, field isolate 127A): 12.5 µg/mL; Minimal Bactericidal Activity (MBC), Staph.Aureus 2337 ([2]; in milk at pH 7.2 - 7.4, field isolate 2337): 25 µg/mL; Minimal Bactericidal Activity (MBC), Staph.Aureus 2372 ([2]; in milk at pH 7.2 - 7.4, field isolate 2372): 25 µg/mL
14 | O=[N+]([O-])c1ccc(-c2cc(CO)nc3ccccc23)o1 [Compound 13] | 5 (≈ 18.5 µM) | > 10 | 10 (≈ 37 µM) | 5 (≈ 18.5 µM) | –
15 | O=C(O)c1cc(-c2ccc([N+](=O)[O-])o2)c2ccccc2n1 [Compound 2, 4-(5-nitrofuryl)-quinaldinic acid] | 0.12 (≈ 0.422 µM) | 1 (≈ 3.52 µM) | 1 (≈ 3.52 µM) | 0.5 (≈ 1.76 µM) | –
16 | COc1ccc2c(-c3ccc([N+](=O)[O-])o3)cc(C)[n+]([O-])c2c1 [Compound 23] | 5 (≈ 16.7 µM) | 5 (≈ 16.7 µM) | 5 (≈ 16.7 µM) | 5 (≈ 16.7 µM) | –
17 | O=C(c1cc(-c2ccc([N+](=O)[O-])o2)c2ccccc2n1)N1CCOCC1 [Compound 18] | 5 (≈ 14.2 µM) | > 10 | > 10 | 10 (≈ 28.3 µM) | –
18 | CCOc1ccc2c(-c3ccc([N+](=O)[O-])o3)cc(C=NO)nc2c1 [Compound 38] | 5 (≈ 15.3 µM) | 10 (≈ 30.6 µM) | 10 (≈ 30.6 µM) | 5 (≈ 15.3 µM) | –

Row | Molecule | MBC [1, 3] [µg/mL] | MBC [1, 4] [µg/mL] | MBC [2, 5] [µg/mL] | MBC [2, 6] [µg/mL] | further results
19 | O=C(N[C@H](CO)[C@H](O)c1ccc([N+](=O)[O-])cc1)C(Cl)Cl [Chloramphenicol, reference compound] | 50 (≈ 155 µM) | > 400 | > 50 | > 50 | –
20 | O=[N+]([O-])c1ccc(-c2ccnc3ccccc23)o1 [Compound 11] | 10 (≈ 41.6 µM) | > 10 | > 10 | > 10 | –
21 | CCc1ccc2c(c1)c(-c1ccc([N+](=O)[O-])o1)cc(C)[n+]2[O-] [Compound 20] | > 10 | > 10 | 5 (≈ 16.8 µM) | 5 (≈ 16.8 µM) | –
22 | CC1(C)S[C@@H]2[C@H](NC(=O)Cc3ccccc3)C(=O)N2[C@H]1C(=O)O [Penicillin G, reference compound] | 0.06 (≈ 0.179 µM) | 1.56 (≈ 4.67 µM) | > 50 | > 50 | –
23 | CN(C)[C@@H]1C(=O)C(C(N)=O)=C(O)[C@@]2(O)C(=O)C3=C(O)c4c(O)cccc4[C@@](C)(O)[C@H]3[C@H](O)[C@@H]12 [Oxytetracyclin, reference compound] | – | – | – | – | MBC [1, 7]: 0.78 µg/mL (≈ 1.69 µM); MBC [1, 8]: > 50 µg/mL; MBC [2, 9]: 25 µg/mL (≈ 54.3 µM); MBC [2, 10]: 50 µg/mL (≈ 109 µM)
24 | O=C1OCCN1/N=C/c1ccc([N+](=O)[O-])o1 [Furazolidone, reference compound] | 10 (≈ 44.4 µM) | > 10 | > 10 | > 10 | –
25 | CCc1cc(-c2ccc([N+](=O)[O-])o2)c2ccc(OC)cc2[n+]1[O-] [Compound 24] | > 10 | > 10 | > 10 | 10 (≈ 31.8 µM) | –
26 | CCc1cc(-c2ccc([N+](=O)[O-])o2)c2cc(C)ccc2n1 [Compound 12] | > 10 | > 10 | > 10 | > 10 | –
27 | O=[N+]([O-])c1ccc(-c2cc[n+]([O-])c3ccccc23)o1 [Compound 41] | 5 (≈ 19.5 µM) | 10 (≈ 39 µM) | 10 (≈ 39 µM) | 5 (≈ 19.5 µM) | –
28 | Cc1cc(-c2ccc([N+](=O)[O-])o2)c2ccc(Cl)cc2n1 [Compound 28] | > 10 | > 10 | > 10 | > 10 | –
29 | Cc1cc(-c2ccc([N+](=O)[O-])o2)c2ccccc2[n+]1[O-] [Compound 6] | 5 (≈ 18.5 µM) | 5 (≈ 18.5 µM) | 5 (≈ 18.5 µM) | 5 (≈ 18.5 µM) | –
30 | Cc1ccc2nc(C)cc(-c3ccc([N+](=O)[O-])o3)c2c1 [Compound 27] | 10 (≈ 37.3 µM) | 10 (≈ 37.3 µM) | 10 (≈ 37.3 µM) | 10 (≈ 37.3 µM) | –
31 | Cc1ccc2c(-c3ccc([N+](=O)[O-])o3)cc(C)[n+]([O-])c2c1 [Compound 21] | 5 (≈ 17.6 µM) | 10 (≈ 35.2 µM) | 5 (≈ 17.6 µM) | 10 (≈ 35.2 µM) | –
32 | O=C1OC(CN2CCOCC2)CN1/N=C/c1ccc([N+](=O)[O-])o1 (centres unmarked) [Furaltadone, reference compound] | 1 (≈ 3.08 µM) | > 10 | 10 (≈ 30.8 µM) | 10 (≈ 30.8 µM) | –
33 | O=[N+]([O-])c1ccc(-c2cc(C(Br)(Br)Br)nc3ccccc23)o1 [Compound 14] | 5 (≈ 10.2 µM) | 5 (≈ 10.2 µM) | 10 (≈ 20.4 µM) | > 10 | –
34 | COc1cc2nc(C)cc(-c3ccc([N+](=O)[O-])o3)c2cc1OC [Compound 37] | 5 (≈ 15.9 µM) | 10 (≈ 31.8 µM) | 10 (≈ 31.8 µM) | 5 (≈ 15.9 µM) | –
35 | Cc1cc(-c2ccc([N+](=O)[O-])o2)c2ccc(N)c(C)c2n1 [Compound 35] | 5 (≈ 17.6 µM) | 10 (≈ 35.3 µM) | 5 (≈ 17.6 µM) | 5 (≈ 17.6 µM) | –
